This test concerns the target hNav1.7 (Homo sapiens (Human), UniProt Q15858). The experiment in a line: Patch voltage clamp electrophysiology assay (EP), Syncropatch 384PE, CHO cells expressing Nav1.7. The format is cell-based. As to conditions: holding potential −50 mV; 7.5 min compound incubation; read-out: EP SP hNav1.7 EVO (IC50). An excerpt: Example 101c: Electrophysiological Assay (EP) (In Vitro Assay)
Patch voltage clamp electrophysiology allows for the direct measurement and quantification of block of voltage-gated sodium channels (NaV's), and allows the determination of the time- and voltage-dependence of block which has been interpreted as differential binding to the resting, open, and inactivated states of the sodium channel (Hille, B., Journal of General Physiology (1977), 69: 497-515).
The following voltage clamp electrophysiology studies are performed on representative compounds using cells heterologously expressing Nav1.7 or Nav1.5 channels. cDNAsfor Nav1.7 (NM_002977) and Nav1.5 (AC137587) are stably expressed in Chinese Hamstr Ovary (CHO) cells and CHL (Chinese Hamster Lung) cells respectively. Sodium currents are measured in the whole-cell configuration using Syncropatch 384PE (Nanlon Technologies, Germany). 1NPC®-384 chips with custom medium resistance and single hole mode are used. Internal solution consists of (in mM): […], 10 CsCl, 20 EGTA, and 10 Hepes (pH adjusted to 7.2); and external solution contains (in mM): 60 NMDG, 80 NaCl, 4 KCl, 1 MgCl2, 2 CaCl2), 2 D-Glucose monohydrate, 10 Hepes (pH adjusted to 7.4 with NaOH).
After system flushing, testing compounds are dissolved in external solution containing 0.1% Pluronic F-127. The chip is moved into the measuring head and the instrument primes the chip with external and internal solutions. 10 μl cells are added to the chip from a cell hotel, and a negative pressure of −50 mBar is applied to form a seal. Following treatment with seal enhancer solution and wash-off with external solution, negative pressure of −250 mbar is applied for 1 second to achieve the whole-cell configuration, followed by three washing steps in external solution. 20 μl of compounds is added to 40 μl in each well (1:3 dilution of compounds), and after mixing, 20 μl is removed so the volume is retained at 40 ul. After approximately 13 minutes recordings, 20 μl/well of 2 uM TTX, or 333 uM Tetracaine (for Nav1.5) is added to achieve full block.
For voltage protocol, an holding potential of −50 mV is applied during the whole experiment. A depolarizing step is applied to −10 mV for 10 ms, followed by a hyperpolarization step to −150 mV for 20 ms to allow channel recovery from inactivation. A second depolarizing step is applied from −150 mV to −10 mV for 10 ms, where currents are measured to derive blocking effects of compounds. Inhibition is determined based on 7.5 min of compound incubation.
(Patch clamp records ionic current or voltage across a cell membrane.)

Structures can show the parent of a compound that is named as a salt.

hNav1.7, sequence (Q15858 other isoform, or with tags, fused parts or gaps): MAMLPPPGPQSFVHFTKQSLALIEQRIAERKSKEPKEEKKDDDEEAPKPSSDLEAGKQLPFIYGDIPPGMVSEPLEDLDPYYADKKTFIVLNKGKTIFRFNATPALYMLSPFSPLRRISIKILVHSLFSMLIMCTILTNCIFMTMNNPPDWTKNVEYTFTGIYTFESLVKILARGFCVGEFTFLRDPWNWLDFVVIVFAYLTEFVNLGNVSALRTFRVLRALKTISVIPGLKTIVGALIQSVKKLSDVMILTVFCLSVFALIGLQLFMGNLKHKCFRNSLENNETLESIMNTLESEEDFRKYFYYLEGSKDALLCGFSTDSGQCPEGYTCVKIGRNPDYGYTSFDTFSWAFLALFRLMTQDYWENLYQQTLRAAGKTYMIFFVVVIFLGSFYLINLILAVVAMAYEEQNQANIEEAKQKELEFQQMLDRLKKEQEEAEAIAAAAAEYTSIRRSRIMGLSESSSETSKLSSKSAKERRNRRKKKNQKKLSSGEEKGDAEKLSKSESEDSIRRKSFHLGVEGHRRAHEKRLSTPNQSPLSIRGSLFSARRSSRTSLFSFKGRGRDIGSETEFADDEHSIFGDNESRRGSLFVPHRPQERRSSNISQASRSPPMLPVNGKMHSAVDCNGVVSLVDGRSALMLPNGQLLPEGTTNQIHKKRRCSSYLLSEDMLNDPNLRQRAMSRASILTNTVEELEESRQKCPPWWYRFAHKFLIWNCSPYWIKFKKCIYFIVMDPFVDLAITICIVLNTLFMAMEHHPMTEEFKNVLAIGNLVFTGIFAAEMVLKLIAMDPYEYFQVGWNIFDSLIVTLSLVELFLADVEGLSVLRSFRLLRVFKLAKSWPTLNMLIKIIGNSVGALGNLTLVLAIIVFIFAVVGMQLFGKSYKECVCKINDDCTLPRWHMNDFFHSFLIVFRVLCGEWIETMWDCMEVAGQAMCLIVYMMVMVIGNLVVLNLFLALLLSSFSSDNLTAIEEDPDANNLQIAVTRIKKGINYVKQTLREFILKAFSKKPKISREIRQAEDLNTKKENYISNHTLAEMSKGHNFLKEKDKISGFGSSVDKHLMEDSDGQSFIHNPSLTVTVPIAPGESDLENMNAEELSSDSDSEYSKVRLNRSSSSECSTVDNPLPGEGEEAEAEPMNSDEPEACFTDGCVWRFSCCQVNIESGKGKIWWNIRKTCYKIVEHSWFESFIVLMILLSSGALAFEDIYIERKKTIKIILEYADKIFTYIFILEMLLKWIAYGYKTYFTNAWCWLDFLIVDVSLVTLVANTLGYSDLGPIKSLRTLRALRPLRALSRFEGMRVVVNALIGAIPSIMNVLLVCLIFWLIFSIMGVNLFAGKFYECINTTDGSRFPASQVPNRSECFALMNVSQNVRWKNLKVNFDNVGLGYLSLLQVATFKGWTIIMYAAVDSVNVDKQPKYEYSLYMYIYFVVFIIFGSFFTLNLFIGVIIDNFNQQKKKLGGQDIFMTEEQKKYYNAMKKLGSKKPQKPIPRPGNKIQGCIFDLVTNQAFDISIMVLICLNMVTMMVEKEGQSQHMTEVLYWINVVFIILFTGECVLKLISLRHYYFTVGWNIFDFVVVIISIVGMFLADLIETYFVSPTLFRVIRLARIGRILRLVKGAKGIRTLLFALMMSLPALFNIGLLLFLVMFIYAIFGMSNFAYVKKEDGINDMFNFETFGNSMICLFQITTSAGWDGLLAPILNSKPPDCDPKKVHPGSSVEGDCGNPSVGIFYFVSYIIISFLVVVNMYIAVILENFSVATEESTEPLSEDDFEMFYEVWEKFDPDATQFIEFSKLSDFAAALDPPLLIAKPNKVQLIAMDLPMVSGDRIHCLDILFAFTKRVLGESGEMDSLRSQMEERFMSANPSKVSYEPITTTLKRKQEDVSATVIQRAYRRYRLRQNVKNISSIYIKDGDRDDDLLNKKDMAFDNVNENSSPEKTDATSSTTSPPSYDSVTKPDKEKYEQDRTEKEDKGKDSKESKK

The IC50 is the midpoint of a concentration-inhibition curve. With `CN(C)[C@]1(CCc2cccc(C(F)(F)F)c2)CCCN(c2ccc(S(=O)(=O)Nc3ccncn3)c(F)c2)C1` (single isomer, unassigned) [Example 1], the 50% inhibitory concentration (IC50) turned out to be 0.00688 µM.

For `CN(C)[C@@]1(CCc2cccc(C(F)(F)F)c2)CCCN(c2ccc(S(=O)(=O)Nc3ccncn3)c(F)c2)C1` (single isomer, unassigned) [Example 2, formate], the IC50 amounted to 0.601 µM.

Regarding `CN[C@@]1(CCc2cccc(C(F)(F)F)c2)CCCN(c2ccc(S(=O)(=O)Nc3ccncn3)c(F)c2)C1` (single isomer, unassigned) [Example 4], the IC50 came out at 0.638 µM.

Turning to `CN(C)[C@@]1(CCc2ccccc2)CCCN(c2ccc(S(=O)(=O)Nc3ccncn3)c(F)c2)C1` (single isomer, unassigned) [Example 5], the half-maximal inhibitory concentration (IC50) was found to be 10 µM.

Take `CN(C)[C@]1(CCc2ccccc2)CCCN(c2ccc(S(=O)(=O)Nc3ccncn3)c(F)c2)C1` (single isomer, unassigned) [Example 6]: the IC50 was 0.0489 µM.

For the compound `CN(C)[C@@]1(CCc2ccc(C(F)(F)F)cc2)CCCN(c2ccc(S(=O)(=O)Nc3ccncn3)c(F)c2)C1` (single isomer, unassigned) [Example 7], the concentration for half-maximal inhibition (IC50) is 0.0124 µM.

Turning to `CN(C)[C@]1(CCc2ccc(C(F)(F)F)cc2)CCCN(c2ccc(S(=O)(=O)Nc3ccncn3)c(F)c2)C1` (single isomer, unassigned) [Example 8], the IC50 turned out to be 2.07 µM.

Take `CN(C)[C@@]1(CCc2cccc(C(F)(F)F)c2)CCCN(c2cc(F)c(S(=O)(=O)Nc3ccncn3)cc2Cl)C1` (single isomer, unassigned) [Example 11]: the IC50 is 0.742 µM.

As for `CN(C)[C@]1(CCc2cccc(C(F)(F)F)c2)CCCN(c2cc(F)c(S(=O)(=O)Nc3ccncn3)cc2Cl)C1` (single isomer, unassigned) [Example 12], the half-maximal inhibitory concentration (IC50) came to 0.0515 µM.

As to `CN(C)[C@@]1(CCc2cccc(C(F)(F)F)c2)CCCN(c2ccc(S(=O)(=O)Nc3nccs3)c(F)c2)C1` (single isomer, unassigned) [Example 13], the IC50 was found to be 0.00153 µM.

On to `CN(C)[C@]1(CCc2cccc(C(F)(F)F)c2)CCCN(c2ccc(S(=O)(=O)Nc3nccs3)c(F)c2)C1` (single isomer, unassigned) [Example 14], for which the IC50 turned out to be 0.0587 µM.

Consider `CN(C)[C@@]1(CCc2cccc(C(F)(F)F)c2)CCCN(c2cc(F)c(S(=O)(=O)Nc3ccncn3)c(F)c2)C1` (single isomer, unassigned) [Example 15], for which the IC50 was determined as 0.288 µM.

Consider `CN(C)[C@]1(CCc2cccc(C(F)(F)F)c2)CCCN(c2cc(F)c(S(=O)(=O)Nc3ccncn3)c(F)c2)C1` (single isomer, unassigned) [Example 16], for which the IC50 is 0.00141 µM.

Turning to `CN(C)[C@@]1(CCc2cccc(C(F)(F)F)c2)CCCN(c2cc(F)c(S(=O)(=O)Nc3ccncn3)c(Cl)c2)C1` (single isomer, unassigned) [Example 17], the IC50 turned out to be 0.314 µM.

On to `CN(C)[C@]1(CCc2cccc(C(F)(F)F)c2)CCCN(c2cc(F)c(S(=O)(=O)Nc3ccncn3)c(Cl)c2)C1` (single isomer, unassigned) [Example 18], for which the IC50 came out at 0.00183 µM.

Take `CN(C)[C@@]1(CCc2ccc(Cl)c(C(F)(F)F)c2)CCCN(c2ccc(S(=O)(=O)Nc3ccncn3)c(F)c2)C1` (single isomer, unassigned) [Example 19]: the IC50 was 0.0604 µM.

In the case of `CN(C)[C@]1(CCc2ccc(Cl)c(C(F)(F)F)c2)CCCN(c2ccc(S(=O)(=O)Nc3ccncn3)c(F)c2)C1` (single isomer, unassigned) [Example 20, formate], the IC50 is 0.00274 µM.

As for `O=S(=O)(Nc1ccncn1)c1ccc(N2CCC[C@](CCc3cccc(C(F)(F)F)c3)(N3CCC3)C2)cc1F` (single isomer, unassigned) [Example 21], the IC50 was 3.18 µM.

Regarding `O=S(=O)(Nc1ccncn1)c1ccc(N2CCC[C@@](CCc3cccc(C(F)(F)F)c3)(N3CCC3)C2)cc1F` (single isomer, unassigned) [Example 22], the IC50 came to 0.0844 µM.

Regarding `O=S(=O)(Nc1ccncn1)c1ccc(N2CCC[C@](CCc3cccc(C(F)(F)F)c3)(N3CCCC3)C2)cc1F` (single isomer, unassigned) [Example 23], the 50% inhibitory concentration (IC50) came out at 0.00862 µM.

Consider `O=S(=O)(Nc1ccncn1)c1ccc(N2CCC[C@@](CCc3cccc(C(F)(F)F)c3)(N3CCCC3)C2)cc1F` (single isomer, unassigned) [Example 24], for which the IC50 came out at 0.439 µM.

In the case of `O=S(=O)(Nc1ccncn1)c1ccc(N2CCC[C@](CCc3cccc(C(F)(F)F)c3)(N3CCCCC3)C2)cc1F` (single isomer, unassigned) [Example 25, formate], the IC50 came to 0.312 µM.

As for `O=S(=O)(Nc1ccncn1)c1ccc(N2CCC[C@@](CCc3cccc(C(F)(F)F)c3)(N3CCCCC3)C2)cc1F` (single isomer, unassigned) [Example 26, formate], the IC50 was found to be 0.0195 µM.

With `CN(C)CCN(C)[C@@]1(CCc2cccc(C(F)(F)F)c2)CCCN(c2ccc(S(=O)(=O)Nc3ccncn3)c(F)c2)C1` (single isomer, unassigned) [Example 27, formate], the IC50 is 2.15 µM.

Regarding `CN(C)CCN(C)[C@]1(CCc2cccc(C(F)(F)F)c2)CCCN(c2ccc(S(=O)(=O)Nc3ccncn3)c(F)c2)C1` (single isomer, unassigned) [Example 28, formate], the IC50 came to 0.00808 µM.

As for `CN1CC(CN(C)[C@@]2(CCc3cccc(C(F)(F)F)c3)CCCN(c3ccc(S(=O)(=O)Nc4ccncn4)c(F)c3)C2)C1` (single isomer, unassigned) [Example 29], the 50% inhibitory concentration (IC50) was found to be 0.00266 µM.

Regarding `CN1CC(CN(C)[C@]2(CCc3cccc(C(F)(F)F)c3)CCCN(c3ccc(S(=O)(=O)Nc4ccncn4)c(F)c3)C2)C1` (single isomer, unassigned) [Example 30, formate], the concentration for half-maximal inhibition (IC50) amounted to 0.0135 µM.

For the compound `CN(C)[C@@]1(CCc2cc(C(F)(F)F)ccc2Cl)CCCN(c2cc(F)c(S(=O)(=O)Nc3ccncn3)c(F)c2)C1` (single isomer, unassigned) [Example 32], the IC50 came to 0.425 µM.

As to `CN(C)[C@]1(CCc2cc(C(F)(F)F)ccc2Cl)CCCN(c2cc(F)c(S(=O)(=O)Nc3ccncn3)c(F)c2)C1` (single isomer, unassigned) [Example 33, formate], the IC50 is 0.00189 µM.

Regarding `CN1CC(N(C)[C@@]2(CCc3cccc(C(F)(F)F)c3)CCCN(c3ccc(S(=O)(=O)Nc4ccncn4)c(F)c3)C2)C1` (single isomer, unassigned) [Example 34], the IC50 came to 0.00182 µM.

Take `CN1CCC(N(C)[C@@]2(CCc3cccc(C(F)(F)F)c3)CCCN(c3ccc(S(=O)(=O)Nc4ccncn4)c(F)c3)C2)CC1` (single isomer, unassigned) [Example 36]: the IC50 is 2.69 µM.

With `CN1CCC(N(C)[C@]2(CCc3cccc(C(F)(F)F)c3)CCCN(c3ccc(S(=O)(=O)Nc4ccncn4)c(F)c3)C2)CC1` (single isomer, unassigned) [Example 37, formate], the IC50 was found to be 0.00722 µM.

Regarding `CN(C)[C@@]1(CCc2cccc(C(F)(F)F)c2)CCCN(c2cc(F)c(S(=O)(=O)Nc3ccncn3)cc2F)C1` (single isomer, unassigned) [Example 38], the 50% inhibitory concentration (IC50) was determined as 0.0288 µM.

Take `CN(C)[C@]1(CCc2cccc(C(F)(F)F)c2)CCCN(c2cc(F)c(S(=O)(=O)Nc3ccncn3)cc2F)C1` (single isomer, unassigned) [Example 39]: the IC50 came to 9.11 µM.

As to `CN(C)[C@]1(CCc2cccc(C(F)(F)F)c2Cl)CCCN(c2cc(F)c(S(=O)(=O)Nc3ccncn3)c(F)c2)C1` (single isomer, unassigned) [Example 41], the IC50 stood at 0.00107 µM.

As to `CN(C)[C@@]1(CCc2cc(Cl)cc(C(F)(F)F)c2)CCCN(c2cc(F)c(S(=O)(=O)Nc3ccncn3)c(F)c2)C1` (single isomer, unassigned) [Example 42], the concentration for half-maximal inhibition (IC50) was 0.052 µM.

In the case of `CN1CC[C@@H](N(C)[C@@]2(CCc3cccc(C(F)(F)F)c3)CCCN(c3cc(F)c(S(=O)(=O)Nc4ccncn4)c(F)c3)C2)C1` (single isomer, unassigned) [Example 44], the IC50 stood at 0.195 µM.

As to `CN1CC[C@H](N(C)[C@@]2(CCc3cccc(C(F)(F)F)c3)CCCN(c3cc(F)c(S(=O)(=O)Nc4ccncn4)c(F)c3)C2)C1` (single isomer, unassigned) [Example 45], the IC50 worked out at 0.00169 µM.

As to `CN(C)[C@@]1(CCc2ccc(C(F)(F)F)c(Cl)c2)CCCN(c2cc(F)c(S(=O)(=O)Nc3ccncn3)c(F)c2)C1` (single isomer, unassigned) [Example 50], the IC50 worked out at 0.504 µM.

The values above are taken from patent US20240239766A1, “3-AMINO PIPERIDYL SODIUM CHANNEL INHIBITORS” (Genentech, Inc., priority 2021, published 2024).
